Patent US11236059B2, “Targeted cytotoxic ratjadone derivatives and conjugates thereof” (HELMHOLTZ-ZENTRUM FUER INFEKTIONSFORSCHUNG GMBH, priority 2017, dated 2022)
Where two headings read alike, the source gives them in different places.

Tests used:
Type in all cases: cell-based
[1] = tested on: A549 (DSMZ ACC 107) cells; assay: cells; details: growth inhibition, 5 days of incubation, MTT assay; read-out: IC50 [nM] A-549 (Gonadoliberin-Ratjadone Conjugates)
Protocol: (§1) 60 μL of serial dilutions of the test compound were given to 120 μL of suspended cells (50.000/mL) in wells of 96-well plates. After 5 days of incubation growth inhibition (IC50) was determined using an MTT assay.^[64]

[2] = tested on: MCF-7 (DSMZ ACC 115) cells; assay: cells
Protocol: as §1

[3] = tested on: SKOV-3 (DSMZ ATCC HTB 77) cells; assay: cells
Protocol: as §1

CRM1 = molecular target: T1, CRM1 (Homo sapiens, UniProt O14980); assay: Monitoring export inhibitory activity (translocation biosensor, HeLaRevBio cells)
T1 construct: HeLa cells stably expressing a fluorescent translocation biosensor (HeLaRevBio); endogenous in cells; host or cells: HeLa (HeLaRevBio in A7; HeLa in A8)
T1 sequence (O14980 whole entry): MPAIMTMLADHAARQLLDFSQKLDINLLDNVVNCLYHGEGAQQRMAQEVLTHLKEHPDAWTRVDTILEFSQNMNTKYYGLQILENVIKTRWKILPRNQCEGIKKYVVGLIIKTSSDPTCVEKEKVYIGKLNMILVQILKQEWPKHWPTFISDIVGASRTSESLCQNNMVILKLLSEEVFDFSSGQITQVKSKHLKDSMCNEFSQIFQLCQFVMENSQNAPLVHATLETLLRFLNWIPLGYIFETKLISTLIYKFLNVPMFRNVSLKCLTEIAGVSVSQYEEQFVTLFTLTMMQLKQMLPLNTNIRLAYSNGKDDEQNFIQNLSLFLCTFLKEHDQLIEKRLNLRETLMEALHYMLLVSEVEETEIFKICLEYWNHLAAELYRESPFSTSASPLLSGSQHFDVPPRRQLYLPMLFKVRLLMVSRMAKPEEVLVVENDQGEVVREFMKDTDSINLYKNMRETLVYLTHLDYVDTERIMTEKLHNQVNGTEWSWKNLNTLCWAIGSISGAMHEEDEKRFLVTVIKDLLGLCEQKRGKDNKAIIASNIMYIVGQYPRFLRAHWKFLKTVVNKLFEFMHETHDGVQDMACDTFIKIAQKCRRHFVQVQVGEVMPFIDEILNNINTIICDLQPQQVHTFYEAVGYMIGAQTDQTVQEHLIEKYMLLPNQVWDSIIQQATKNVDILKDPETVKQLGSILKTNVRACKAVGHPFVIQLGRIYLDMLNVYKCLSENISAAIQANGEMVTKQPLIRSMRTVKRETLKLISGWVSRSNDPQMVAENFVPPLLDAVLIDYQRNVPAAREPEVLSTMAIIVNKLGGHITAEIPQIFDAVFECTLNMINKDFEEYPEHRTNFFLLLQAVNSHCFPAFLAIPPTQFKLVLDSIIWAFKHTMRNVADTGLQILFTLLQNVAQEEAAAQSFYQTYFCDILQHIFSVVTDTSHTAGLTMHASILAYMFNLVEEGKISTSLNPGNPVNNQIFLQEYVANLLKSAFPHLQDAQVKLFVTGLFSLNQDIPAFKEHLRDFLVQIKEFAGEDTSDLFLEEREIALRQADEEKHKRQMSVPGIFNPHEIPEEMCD
Protocol: Export inhibitory ability of compounds was evaluated with the translocation biosensor system. This cellular assay depends on a recombinantly expressed fusion protein consisting of a nuclear localization signal (SV40-NLS), glutathione S-transferase (GST), green fluorescent protein (GFP) and a nuclear export signal (HIV1-RevNES). Due to the two transport signals (NLS/NES), the biosensor is permanently shuttling between nucleus and cytoplasm but resides prominently in the cytoplasm due to a comparatively stronger NES. Export inhibiting compound induce a nuclear accumulation of the GFP-signal^[65,66] Cell lines were maintained as recommended by the American Type Culture Collection in DMEM containing 5% glutamine (Thermo Fisher Scientific, Waltham, USA) supplemented with 10% FBS (Thermo Fisher Scientific, Waltham, USA). For quantifying the nuclear export inhibitory effect, HeLa cells stably expressing a fluorescent translocation biosensor (HeLaRevBio)^[67] were seeded into black 96 well μclear plates (Greiner, Germany). They next day compounds were added covering an appropriate concentration range. After 1h of incubation, cells were fixed in 4% PFA for 10 min and permeabilized with 0.1% Triton X 100 in PBS for 5 min. After washing with PBS nuclei were labeled with Hoechst H33342 (30 min 10 μg/ml). The intracellular distribution of the biosensor-dependent GFP signal was quantitatively evaluated with the high content imaging system ImageXpress MicroXLS (Molecular Devices, Sunnyvale, USA). By using the translocation enhanced application module (Molecular Devices, Sunnyvale, USA) the GFP-intensity was quantified in the cytoplasm and nuclear region. As final readout the difference of Mean Inner and Mean Outer Intensity was calculated. IC50s of nuclear export inhibition were calculated using Sigma Plot with four parameter logistics curve regression (Systat Software GmbH, Erkrath, Germany). […] The following day compounds were added at 125 nM final concentration.

[4] = tested on: KB 3.1 (DSMZ ACC 158) cells; assay: Cell proliferation assay under folate free conditions; details: RPMI-medium without folic acid + 10% dialyzed fetal calf serum; MTT assay after 1, 2 and 5 days (day of the value not given); read-out: IC50 [nM] KB 3.1 (Folate-Ratjadone Conjugates)
Protocol: KB 3.1 (DSMZ ACC 158) cells were cultivated at 37° C. and 10% C002 in RMPI-medium without folic acid (Gibco) with 10% fetal calf serum (Gibco). 120 μL of suspended cells (100.000/mL) were seeded in wells of 96-well plates and after 24 h at 37° C. and 10% CO2 the medium was removed, the cells were washed with PBS and RPMI-medium without folic acid (Gibco)+10% dialyzed fetal calf serum (Sigma) were added to the cells, before after additional 24 h at 37° C. and 10% C002 60 μL of serial dilutions of the test compound were given to cells. After 1, 2 and 5 days of incubation growth inhibition (IC50) was determined using an MTT assay.^[64]

[5] = HeLa cells stably expressing translocation biosensor, 1h of incubation, read-out: IC50 [nM] CRM1 (nuclear export inhibition)

| SMILES | IC50 [1] | IC50 [4] | also measured |
| --- | --- | --- | --- |
| C/C=C/[C@@H]1O[C@H]([C@@H](/C=C/C=C(\C)C[C@@H](C)/C=C(C)\C=C\[C@H]2CC=CC(=O)O2)NC(=O)OCc2ccc(NC(=O)[C@H](CCCNC(N)=O)NC(=O)[C@@H](NC(=O)OC[C@@H]3[C@@H]4CCc5nnn(CCC[C@@H](NC(=O)[C@H](Cc6ccc(O)cc6)NC(=O)[C@H](CO)NC(=O)[C@H](Cc6c[nH]c7ccccc67)NC(=O)[C@H](Cc6c[nH]cn6)NC(=O)[C@@H]6CCC(=O)N6)C(=O)N[C@@H](CC(C)C)C(=O)N[C@@H](CCCNC(=N)N)C(=O)N6CCC[C@H]6C(=O)NNC(N)=O)c5CC[C@@H]43)C(C)C)cc2)C[C@@H](O)[C@@H]1C | 12.8 nM |  |  |
| C/C=C/[C@@H]1O[C@H]([C@@H](/C=C/C=C(\C)C[C@@H](C)/C=C(C)\C=C\[C@H]2CC=CC(=O)O2)NC(=O)OCc2ccc(NC(=O)[C@H](CCCNC(N)=O)NC(=O)[C@@H](NC(=O)OC[C@@H]3[C@@H]4CCc5nnn(CCC[C@@H](NC(=O)[C@H](Cc6ccc(O)cc6)NC(=O)[C@H](CO)NC(=O)[C@H](Cc6c[nH]c7ccccc67)NC(=O)[C@H](Cc6c[nH]cn6)NC(=O)[C@@H]6CCC(=O)N6)C(=O)N[C@@H](CC(C)C)C(=O)N[C@@H](CCCNC(=N)N)C(=O)N6CCC[C@H]6C(=O)NCC(N)=O)c5CC[C@@H]43)C(C)C)cc2)C[C@@H](O)[C@@H]1C | 23 nM |  |  |
| C/C=C/[C@@H]1O[C@H]([C@@H](/C=C/C=C(\C)C[C@@H](C)/C=C(C)\C=C\[C@H]2CC=CC(=O)O2)NC(=O)OCc2ccc(NC(=O)[C@H](CCCNC(N)=O)NC(=O)[C@@H](NC(=O)OCCc3cn(CCC[C@H](NC(=O)[C@H](Cc4ccc(O)cc4)NC(=O)[C@H](CO)NC(=O)[C@H](Cc4c[nH]c5ccccc45)NC(=O)[C@H](Cc4c[nH]cn4)NC(=O)[C@@H]4CCC(=O)N4)C(=O)N[C@@H](CC(C)C)C(=O)N[C@@H](CCCNC(=N)N)C(=O)N4CCC[C@H]4C(=O)NCC(N)=O)nn3)C(C)C)cc2)C[C@@H](O)[C@@H]1C | 1200 nM |  |  |
| C/C=C/[C@@H]1O[C@H]([C@H](N)/C=C/C=C(\C)C[C@@H](C)/C=C(C)\C=C\[C@H]2CC=CC(=O)O2)C[C@@H](O)[C@@H]1C [16R-Amino-Ratjadone 11, (R)-6-((1E,3Z,5R,7E,9E,11R)-11-amino-11-((2S,4R,5S,6S)-4-hydroxy-5-methyl-6-((E)-prop-1-en-1-yl)tetrahydro-2H-pyran-2-yl)-3,5,7-trimethylundeca-1,3,7,9-tetra-en-1-yl)-5,6-dihydro-2H-pyran-2-one] |  |  | IC50 ([2]; Homo sapiens, MCF7, 120 h, read-out: IC50 [nM] MCF-7, growth inhibition, 5 days of incubation, MTT assay): 0.26 nM; IC50 ([2]; read-out: IC50 [nM] MCF-7, growth inhibition, 5 days of incubation, MTT assay): 0.36 nM; IC50 ([3]; Homo sapiens, SK-OV-3, 120 h, read-out: IC50 [nM] SK-OV-3, growth inhibition, 5 days of incubation, MTT assay): 0.61 nM; IC50 ([3]; read-out: IC50 [nM] SK-OV-3, growth inhibition, 5 days of incubation, MTT assay): 0.81 nM; IC50 (CRM1; [5]): 2.7 nM |
| C/C=C/[C@@H]1O[C@H]([C@@H](N)/C=C/C=C(\C)C[C@@H](C)/C=C(C)\C=C\[C@H]2CC=CC(=O)O2)C[C@@H](O)[C@@H]1C [16S-Amino-Ratjadone 12, (R)-6-((1E,3Z,5R,7E,9E,11 S)-11-amino-11-((2S,4R,5S,6S)-4-hydroxy-5-methyl-6-((E)-prop-1-en-1-yl)tetrahydro-2H-pyran-2-yl)-3,5,7-trimethylun-deca-1,3,7,9-tetraen-1-yl)-5,6-dihydro-2H-pyran-2-one] |  |  | IC50 (CRM1; [5]): 2.8 nM |
| C/C=C/[C@@H]1O[C@H](C(/C=C/C=C(\C)C[C@@H](C)/C=C\C=C(/C)[C@H]2CC=CC(=O)O2)NC(=O)OCc2ccc(NC(=O)[C@H](CCCNC(N)=O)NC(=O)[C@@H](NC(=O)OC[C@@H]3[C@@H]4CCc5nnn(-c6ccc(C(=O)NCCCC[C@H](NC(=O)[C@H](CC(=O)O)NC(=O)[C@H](CC(=O)O)NC(=O)[C@H](CCCCNC(=O)c7ccc(-n8nnc9c8CC[C@H]8[C@@H](CC9)[C@H]8COC(=O)N[C@H](C(=O)N[C@@H](CCCNC(N)=O)C(=O)Nc8ccc(COC(=O)NC(/C=C/C=C(\C)C[C@@H](C)/C=C\C=C(/C)[C@H]9CC=CC(=O)O9)[C@@H]9C[C@@H](O)[C@H](C)[C@H](/C=C/C)O9)cc8)C(C)C)cc7)NC(=O)[C@@H](CC(=O)O)NC(=O)[C@@H](CC(=O)O)NC(=O)CC[C@H](NC(=O)c7ccc(NCc8cnc9nc(N)nc(O)c9n8)cc7)C(=O)O)C(=O)O)cc6)c5CC[C@@H]43)C(C)C)cc2)C[C@@H](O)[C@@H]1C (stereo partly drawn) [FA-4-(Val-Cit-PABA-16R-Aminoratjadone)2] |  | 148 nM |  |
| C/C=C/[C@@H]1O[C@H]([C@@H](/C=C/C=C(\C)C[C@@H](C)/C=C(C)\C=C\[C@H]2CC=CC(=O)O2)NC(=O)OCCc2cn(CCC[C@H](NC(=O)[C@@H](CC(=O)O)NC(=O)[C@@H](CC(=O)O)NC(=O)[C@@H](CC(=O)O)NC(=O)[C@@H](CC(=O)O)NC(=O)[C@@H](CC(=O)O)NC(=O)CC[C@H](NC(=O)c3ccc(NCc4cnc5nc(N)nc(O)c5n4)cc3)C(=O)O)C(=O)O)nn2)C[C@@H](O)[C@@H]1C [FA-5-16R-Aminoratjadone] |  | 50.3 nM |  |
| C/C=C/[C@@H]1O[C@H]([C@@H](/C=C/C=C(\C)C[C@@H](C)/C=C(C)\C=C\[C@H]2CC=CC(=O)O2)NC(=O)OCCc2cn(-c3ccc(C(=O)NCCCC[C@H](NC(=O)CC[C@H](NC(=O)CC[C@H](NC(=O)c4ccc(NCc5cnc6nc(N)nc(O)c6n5)cc4)C(=O)O)C(=O)O)C(=O)O)cc3)nn2)C[C@@H](O)[C@@H]1C [FA-6-16R-Aminoratjadone, (3S,8S,13S)-1-(4-(((2-amino-4-hydroxypteridin-6-yl)methyl)amino)phenyl)-19-(4-(4-(2-((((1R,2E,4E,7R,8Z,10E)-1-((2S,4R,5S,6S)-4-hydroxy-5-methyl-6-((E)-prop-1-en-1-yl)tetrahydro-2H-pyran-2-yl)-5,7,9-trimethyl-1-((R)-6-oxo-3,6-dihydro-2H-pyran-2-yl)undeca-2,4,8,10-tetraen-1-yl)carbamoyl)oxy)ethyl)-1H-1,2,3-triazol-1-yl)phenyl)-1,6,11,19-tetraoxo-2,7,12,18-tetraazanonadecane-3,8,13-tricarboxylic acid] |  | 150 nM |  |
| C/C=C/[C@@H]1O[C@H]([C@@H](/C=C/C=C(\C)C[C@@H](C)/C=C(C)\C=C\[C@H]2CC=CC(=O)O2)NC(=O)OCc2ccc(NC(=O)[C@H](CCCNC(N)=O)NC(=O)[C@@H](NC(=O)OC[C@@H]3[C@@H]4CCc5nnn(-c6ccc(C(=O)NCCCC[C@H](NC(=O)CC[C@H](NC(=O)CC[C@H](NC(=O)c7ccc(NCc8cnc9nc(N)nc(O)c9n8)cc7)C(=O)O)C(=O)O)C(=O)O)cc6)c5CC[C@@H]43)C(C)C)cc2)C[C@@H](O)[C@@H]1C [FA-6-Val-Cit-PABA-16R-Aminoratjadone] |  | 223 nM |  |
| C/C=C/[C@@H]1O[C@H]([C@@H](/C=C/C=C(\C)C[C@@H](C)/C=C(C)\C=C\[C@H]2CC=CC(=O)O2)NC(=O)OCCc2cn(CCC[C@H](NC(=O)[C@H](Cc3ccc(O)cc3)NC(=O)[C@H](CO)NC(=O)[C@H](Cc3c[nH]c4ccccc34)NC(=O)[C@H](Cc3c[nH]cn3)NC(=O)[C@@H]3CCC(=O)N3)C(=O)N[C@@H](CC(C)C)C(=O)N[C@@H](CCCNC(=N)N)C(=O)N3CCC[C@H]3C(=O)NCC(N)=O)nn2)C[C@@H](O)[C@@H]1C [L-Orn-LHRH-16R-Aminoratjadone] | 1600 nM |  | IC50 (CRM1): 1060 nM |
| C/C=C/[C@@H]1O[C@H]([C@H](O)/C=C/C=C(\C)C[C@@H](C)/C=C(C)\C=C\[C@H]2CC=CC(=O)O2)C[C@@H](O)[C@@H]1C [Ratjadone A 1, (R)-6-((1E,3Z,5R,7E,9E,11R)-11-hydroxy-11-((2S,4R,5S,6S)-4-hydroxy-5-methyl-6-((E)-prop-1-en-1-yl)tetrahydro-2H-pyran-2-yl)-3,5,7-trimethylundeca-1,3,7,9-tetraen-1-yl)-5,6-dihydro-2H-pyran-2-one, reference compound] |  |  | IC50 (CRM1; [5]): 1.2 nM |
